From patent US20090155387A1, “STABLE PHARMACEUTICAL COMPOSITION COMPRISING BETA-LACTAM ANTIBIOTIC AND ION-CHELATING AGENT” (priority 2006, published 2009)

Test: Amounts of β-lactam antibiotic, β-lactamase inhibitor and aminoglycoside antibiotic in solution over time (reverse-phase LC/HPLC)
Format: physicochemical
Procedure, shortened: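 β-Lactam antibiotic and β-lactamase inhibitor quantified by C18 reverse-phase LC with UV-VIS detection; aminoglycoside by reverse-phase HPLC with evaporative light-scattering detection. Peak areas taken relative to an external standard, with each component at each time point given as a percentage of its initial amount.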

CC1(C)[C@H](C(=O)O)N2C(=O)C[C@H]2S1(=O)=O [Sulbactam sodium]
amount (percentage of initial amount) (in Example 4 solution (no EDTA), pH 6.75, room temperature, 0 h): 101.4%
amount (percentage of initial amount) (in Example 4 solution (no EDTA), pH 6.75, room temperature, 1 h): 101.4%
amount (percentage of initial amount) (in Example 4 solution (no EDTA), pH 6.75, room temperature, 2 h): 101.5%
amount (percentage of initial amount) (in Example 4 solution (no EDTA), pH 6.75, room temperature, 4 h): 109.7%
amount (percentage of initial amount) (in Example 4 solution (no EDTA), pH 6.75, room temperature, 6 h): 103.2%
amount (percentage of initial amount) (in Example 5 solution, pH 6.75, room temperature, 0 h): 101.4%
amount (percentage of initial amount) (in Example 5 solution, pH 6.75, room temperature, 1 h): 101.4%
amount (percentage of initial amount) (in Example 5 solution, pH 6.75, room temperature, 2 h): 101.5%
amount (percentage of initial amount) (in Example 5 solution, pH 6.75, room temperature, 4 h): 109.7%
amount (percentage of initial amount) (in Example 5 solution, pH 6.75, room temperature, 6 h): 103.2%
amount (percentage of initial amount) (in Example 6 solution, pH 6.5, room temperature, 0 h): 99.62%
amount (percentage of initial amount) (in Example 6 solution, pH 6.5, room temperature, 1 h): 100.4%
amount (percentage of initial amount) (in Example 6 solution, pH 6.5, room temperature, 2 h): 100.2%
amount (percentage of initial amount) (in Example 6 solution, pH 6.5, room temperature, 4 h): 100.2%
amount (percentage of initial amount) (in Example 7 solution, pH 6.75, room temperature, 0 h): 96.84%
amount (percentage of initial amount) (in Example 7 solution, pH 6.75, room temperature, 1 h): 94.43%
amount (percentage of initial amount) (in Example 7 solution, pH 6.75, room temperature, 2 h): 93.35%
amount (percentage of initial amount) (in Example 7 solution, pH 6.75, room temperature, 4 h): 93.23%
amount (percentage of initial amount) (in Example 7 solution, pH 6.75, room temperature, 6 h): 92.13%
amount (percentage of initial amount) (in Example 7 solution, pH 6.75, room temperature, 8 h): 93.38%
amount (percentage of initial amount) (in Example 12 solution (no aminoglycoside) from freeze-dried powder stored 7 days at 0° C., redissolved, 0 h): 98.5%
amount (percentage of initial amount) (in Example 12 solution (no aminoglycoside) from freeze-dried powder stored 7 days at 0° C., redissolved, 1 h): 98.7%
amount (percentage of initial amount) (in Example 12 solution (no aminoglycoside) from freeze-dried powder stored 7 days at 0° C., redissolved, 2 h): 98.2%
amount (percentage of initial amount) (in Example 12 solution (no aminoglycoside) from freeze-dried powder stored 7 days at 0° C., redissolved, 4 h): 95.6%
amount (percentage of initial amount) (in Example 12 solution (no aminoglycoside) from freeze-dried powder stored 7 days at 0° C., redissolved, 6 h): 94.0%
amount (percentage of initial amount) (in Example 12 solution (no aminoglycoside) from freeze-dried powder stored 7 days at 0° C., redissolved, 8 h): 96.1%
amount (percentage of initial amount) (in Example 14 solution, pH 6.5, room temperature, 0 h): 92.44%
amount (percentage of initial amount) (in Example 14 solution, pH 6.5, room temperature, 1 h): 91.27%
amount (percentage of initial amount) (in Example 14 solution, pH 6.5, room temperature, 2 h): 90.78%
amount (percentage of initial amount) (in Example 14 solution, pH 6.5, room temperature, 4 h): 88.38%
amount (percentage of initial amount) (in Example 14 solution, pH 6.5, room temperature, 6 h): 86.86%
amount (percentage of initial amount) (in Example 15 solution, pH 6.5, room temperature, 0 h): 99.50%
amount (percentage of initial amount) (in Example 15 solution, pH 6.5, room temperature, 1 h): 96.28%
amount (percentage of initial amount) (in Example 15 solution, pH 6.5, room temperature, 2 h): 102.5%
amount (percentage of initial amount) (in Example 15 solution, pH 6.5, room temperature, 4 h): 95.78%
amount (percentage of initial amount) (in Example 15 solution, pH 6.5, room temperature, 6 h): 70.74%
amount (percentage of initial amount) (in Example 17 solution, pH 6.5, room temperature, 0 h): 114.3%
amount (percentage of initial amount) (in Example 17 solution, pH 6.5, room temperature, 1 h): 95.83%
amount (percentage of initial amount) (in Example 17 solution, pH 6.5, room temperature, 2 h): 93.75%
amount (percentage of initial amount) (in Example 17 solution, pH 6.5, room temperature, 4 h): 93.78%
amount (percentage of initial amount) (in Example 17 solution, pH 6.5, room temperature, 6 h): 95.65%
amount (percentage of initial amount) (in Example 17 solution, pH 6.5, room temperature, 8 h): 101.0%
amount (percentage of initial amount) (in Example 18 solution (2.5% fructose), pH 6.5, room temperature, 0 h): 98.07%
amount (percentage of initial amount) (in Example 18 solution (2.5% fructose), pH 6.5, room temperature, 1 h): 98.13%
amount (percentage of initial amount) (in Example 18 solution (2.5% fructose), pH 6.5, room temperature, 2 h): 72.96%
amount (percentage of initial amount) (in Example 18 solution (2.5% fructose), pH 6.5, room temperature, 4 h): 95.16%
amount (percentage of initial amount) (in Example 18 solution (2.5% fructose), pH 6.5, room temperature, 6 h): 99.65%
amount (percentage of initial amount) (in Example 18 solution (2.5% fructose), pH 6.5, room temperature, 8 h): 104.9%
amount (percentage of initial amount) (in Example 19 solution, pH 6.75, room temperature, 0 h): 108.8%
amount (percentage of initial amount) (in Example 19 solution, pH 6.75, room temperature, 1 h): 109.6%
amount (percentage of initial amount) (in Example 19 solution, pH 6.75, room temperature, 2 h): 111.7%
amount (percentage of initial amount) (in Example 19 solution, pH 6.75, room temperature, 4 h): 115.9%
amount (percentage of initial amount) (in Example 19 solution, pH 6.75, room temperature, 6 h): 120.7%
amount (percentage of initial amount) (in Example 19 solution, pH 6.75, room temperature, 8 h): 125.6%
amount (percentage of initial amount) (in Example 20 solution (no EDTA), pH 6.75, room temperature, 0 h): 105.6%
amount (percentage of initial amount) (in Example 20 solution (no EDTA), pH 6.75, room temperature, 1 h): 112.2%
amount (percentage of initial amount) (in Example 20 solution (no EDTA), pH 6.75, room temperature, 2 h): 112.6%
amount (percentage of initial amount) (in Example 20 solution (no EDTA), pH 6.75, room temperature, 4 h): 118.5%
amount (percentage of initial amount) (in Example 20 solution (no EDTA), pH 6.75, room temperature, 6 h): 123.3%
amount (percentage of initial amount) (in Example 20 solution (no EDTA), pH 6.75, room temperature, 8 h): 127.1%
amount (percentage of initial amount) (in Example 22 solution (2.5% fructose), pH 6.0, room temperature, 0 h): 101.4%
amount (percentage of initial amount) (in Example 22 solution (2.5% fructose), pH 6.0, room temperature, 1 h): 107.6%
amount (percentage of initial amount) (in Example 22 solution (2.5% fructose), pH 6.0, room temperature, 2 h): 101.3%
amount (percentage of initial amount) (in Example 22 solution (2.5% fructose), pH 6.0, room temperature, 4 h): 104.4%
amount (percentage of initial amount) (in Example 22 solution (2.5% fructose), pH 6.0, room temperature, 6 h): 104.4%
amount (percentage of initial amount) (in Example 22 solution (2.5% fructose), pH 6.0, room temperature, 8 h): 91.39%
amount (percentage of initial amount) (in Example 24 solution, pH 6.75, room temperature, 0 h): 90.06%
amount (percentage of initial amount) (in Example 24 solution, pH 6.75, room temperature, 1 h): 94.26%
amount (percentage of initial amount) (in Example 24 solution, pH 6.75, room temperature, 2 h): 100.5%
amount (percentage of initial amount) (in Example 24 solution, pH 6.75, room temperature, 4 h): 89.94%
amount (percentage of initial amount) (in Example 24 solution, pH 6.75, room temperature, 6 h): 94.26%
amount (percentage of initial amount) (in Example 24 solution, pH 6.75, room temperature, 8 h): 105.0%
amount (percentage of initial amount) (in Example 25 solution, pH 6.75, room temperature, 0 h): 99.32%
amount (percentage of initial amount) (in Example 25 solution, pH 6.75, room temperature, 1 h): 107.5%
amount (percentage of initial amount) (in Example 25 solution, pH 6.75, room temperature, 2 h): 97.91%
amount (percentage of initial amount) (in Example 25 solution, pH 6.75, room temperature, 4 h): 83.79%
amount (percentage of initial amount) (in Example 25 solution, pH 6.75, room temperature, 6 h): 94.52%
amount (percentage of initial amount) (in Example 25 solution, pH 6.75, room temperature, 8 h): 105.5%
